Converted amounts (≈) assume the structure as drawn.
Columns and labels:
Experiment in all cases: antibacterial activity (MIC), broth dilution method
Type in all cases: cell-based
[1] = tested on: E. coli, NIHJ; conditions: Escherichia coli, Muller-Hinton broth, 10^5 /ml bacteria, 37° C., 18 hours, read-out: Minimal Inhibitory Concentration (MIC)
Experimental: (§1) On some of the compounds according to the present invention, the antibacterial activity was determined by broth dilution method in Muller-Hinton broth in which 10^5 /ml of bacteria were seaded and incubated at 37° C. for 18 hours.

[2] = tested on: Ent. cloacae, 03400; conditions: Enterobacter cloacae, Muller-Hinton broth, 10^5 /ml bacteria, 37° C., 18 hours, read-out: Minimal Inhibitory Concentration (MIC)
Experimental: as §1

[3] = tested on: Ps. aeruginosa, 32233; conditions: Pseudomonas aeruginosa, Muller-Hinton broth, 10^5 /ml bacteria, 37° C., 18 hours, read-out: Minimal Inhibitory Concentration (MIC)
Experimental: as §1

[4] = tested on: S. aureus, 209P; conditions: Staphylococcus aureus, Muller-Hinton broth, 10^5 /ml bacteria, 37° C., 18 hours, read-out: Minimal Inhibitory Concentration (MIC)
Experimental: as §1

[5] = tested on: Ser. Marcescens, 10104; conditions: Serratia marcescens, Muller-Hinton broth, 10^5 /ml bacteria, 37° C., 18 hours, read-out: Minimal Inhibitory Concentration (MIC)
Experimental: as §1

MIC [1] [µg/mL] | MIC [2] [µg/mL] | MIC [3] [µg/mL] | MIC [4] [µg/mL] | MIC [5] [µg/mL] | SMILES
0.1 (≈ 0.272 µM) | 0.2 (≈ 0.544 µM) | 0.78 (≈ 2.12 µM) | ≤ 0.05 | 0.78 (≈ 2.12 µM) | CC(O)C1C(=O)N2C(C(=O)[O-])=C(SC3CCn4c[n+](C)cc43)SC12 (single isomer, unassigned) [B]
≤ 0.05 | 0.39 (≈ 1.1 µM) | 25 (≈ 70.5 µM) | ≤ 0.05 | 0.78 (≈ 2.2 µM) | CC(O)C1C(=O)N2C(C(=O)O)=C(SC3Cc4nncn4C3)SC12 [A, (5R, 6S, 8R)-6-(1-hydroxyethyl)-2-[(6,7-dihydro-5H-pyrrolo[(2,1-c]-1,2,4-triazol-6-yl)thio]-2-penem-3-carboxylic acid]
0.39 (≈ 1.17 µM) | 0.78 (≈ 2.33 µM) | 100 (≈ 299 µM) | 0.1 (≈ 0.299 µM) | 3.13 (≈ 9.36 µM) | CC(O)C1C(=O)N2C(C(=O)O)=C(SCCOC(N)=O)SC12 (stereo not drawn) [Sch 34343, reference compound]

Source: US5079357A, “Derivatives of penem” (Daiichi Pharmaceutical Co., Ltd., priority 1985, dated 1992)
